Experiments:
CaSki and HaCAT cells = conditions: 3 independent experiments, FIG. 13
Akt = test: Ionomycin-induced Akt phosphorylation (biotinylation of cell surface proteins, immunoblot); type: cell-based, human; conditions: CaSki cells; 1 μM ionomycin; 5 or 15 minutes; immunoblotting
Protocol: (§1) FIG. 9A-9E. Ionomycin activates phospholipid scramblase leading to externalization of phosphatidylserines and Akt. (A). CaSki cells were treated with ionomycin (1 μM), HSV-2(G) (MOI 5 pfu/cell) or DMSO (0.1%) for 15 minutes and then fixed and stained with antibodies to PLSCR1 (polyclonal rabbit and Alexa 555, red), PtdS (monoclonal antibody and Alexa555, red), or Akt (polyclonal rabbit and secondary Alexa488, green) as indicated. Nuclei were stained blue with DAPI. Images are representative of results obtained from 2-3 independent experiments; bar=10 μm. Five fields were scanned and mean fluorescence intensity (MFI) per cell calculated using ImageJ software (NIH); results are mean+SEM and the asterisks indicate significant differences by ANOVA compared to DMSO control treated cells. (B). CaSki cells were treated as in A for 15 minutes and then cell lysates were harvested, incubated with a goat anti-PLSCR1 antibody and immune complexes precipitated with protein G-agarose and analyzed by Western blotting with a mouse anti-phosphotyrosine mAb (PY20) or mouse anti-PLSCR1 Ab. […] (C). […] Cell surface proteins were biotinylated and precipitated with streptavidin magnetic beads and the pellet analyzed by immunoblotting with rabbit anti-pAktThr^308 or mouse anti-pAktS^473 1 Abs. In parallel, cellular lysates were analyzed by immunoblotting for total cellular Akt (rabbit polyclonal Ab). […]

PLSCR1 = test: Ionomycin activation of PLSCR1 (microscopy, co-immunoprecipitation/anti-phosphotyrosine blot); type: cell-based, human; conditions: CaSki cells; 1 μM ionomycin; 15 minutes; immunoblotting
Protocol: as §1

[1] = test system: phosphatidylserines (PtdS), Akt, PLSCR1 at the outer leaflet of the plasma membrane; test: Confocal imaging of HSV-induced externalization of PtdS, Akt and PLSCR1 in non-permeabilized cells; type: cell-based, human
HSV-2(G) = test: Viral plaque assay with HSV-2(G); type: cell-based; conditions: 5 μM R5421 pretreatment, drug added back to overlay, plaques 48 h post-infection
HSV-2(333ZAG) = type: cell-based; conditions: Vk2E6/E7 cells, R5421 pretreatment
HSV-1(VP26GFP) = type: cell-based; conditions: Vk2E6/E7 cells, R5421 pretreatment
HSV-1 = conditions: sporadic fatal encephalitis; optimal intravenous acyclovir therapy; cited from earlier work

Molecule: Nonoxynol-9 [N9]
- cytotoxicity, cell viability as percentage of control (CaSki and HaCAT cells): kills cells

Molecule: C[C@H](CCC(=O)O)C[C@H](C)C[C@H](C)C(=O)/C=C(\O)[C@H](C)C[C@H](C)C/C=C/[C@@H](C)[C@@H](O)[C@@H](C)[C@@H](O)C[C@@H]1CC[C@@](C)([C@H]2CC[C@@](C)([C@@H](C)O)O2)O1 [ionomycin]
- phosphorylated Akt (Akt): phosphorylated Akt (both at the threonine 308 and serine 473 sites)
- phosphorylated PLSCR1 (PLSCR1): an increase in phosphorylated PLSCR1

Molecule: O=C(O)C(=O)O [R5421, ethanedioic acid]
- PtdS and Akt externalization [1]: prevented PtdS and Akt externalization
- viral induced externalization of PtdS ([1]; CaSki cells, 5 μM R5421 15 min pretreatment, […]): prevented the viral induced externalization of PtdS
- PtdS and Akt at the outer leaflet ([1]; R5421 added 30 min pi, CaSki, […]): persistence of PtdS and Akt at the outer leaflet for up to 4 h pi
- reduction of HSV-2 plaque formation relative to DMSO treated controls (HSV-2(G); CaSki cells): 88±7%
- reduction of HSV-2 plaque formation relative to DMSO treated controls (HSV-2(G); HaCAT cells): 71.7±7%
- reduction of HSV-2 plaque formation relative to DMSO treated controls (HSV-2(G); VK2E6/E7 cells): 95±6%
- infection, percentage of GFP positive cells 16 h pi (HSV-2(333ZAG)): reduced
- infection, percentage of GFP positive cells 16 h pi (HSV-1(VP26GFP)): reduced

Molecule: Nc1nc2c(ncn2COCCO)c(=O)[nH]1 [acyclovir, 9-[2-hydroxymethyl]guanine]
- mortality (HSV-1): 14-19%
- survivors who resume a normal lifestyle (HSV-1): < 50%

Molecule: CC(=O)OCOC(=O)CN(CC(=O)OCOC(C)=O)c1ccccc1OCCOc1ccccc1N(CC(=O)OCOC(C)=O)CC(=O)OCOC(C)=O [BAPTA-AM]
- number of cells with detectable PtdS, Akt, or PLSCR1 at the outer leaflet ([1]; 100 μM pretreatment, CaSki, […]): significantly reduced
